Here are results for 59 compounds from patent publication US9556158B2, “Fungicidal 3-[(pyridin-2-ylmethoxyimino)(phenyl)methyl]-2-substituted-1,2,4-oxadiazol-5(2H)-one derivatives” (BAYER INTELLECTUAL PROPERTY GMBH, priority 2011, dated 2017).

Tested on in one data set: not given
Experiment: not given
The settings on record: HPLC on reversed phase columns, pH 2.7, 0.1% formic acid in water / acetonitrile gradient.
The LogP is a log measure of how a compound divides between an organic and an aqueous phase. A higher LogP goes with a more lipophilic compound. On to `Cn1oc(=O)nc1C(=NOCc1cccc(NC(=O)OC(C)(C)C)n1)c1cccc(F)c1F` [Example 187], for which the LogP is on record as 3.33.

The data set is the same for the next values; noted with them: pH 2.7, LogP, HPLC on reversed phase columns, pH 2.7, 0.1% formic acid in water / acetonitrile gradient.
Usually chromatographic logP stands for lipophilicity estimated from chromatographic retention. For the compound `C#CCCOC(=O)Nc1cccc(CON=C(c2cccc(C)c2)c2nc(=O)on2C)n1` [Example 84], the chromatographic logP was found to be 2.96.

On to `C#CCC(C)OC(=O)Nc1cccc(CON=C(c2cccc(C)c2)c2nc(=O)on2C)n1` (stereo not shown) [Example 83], for which the chromatographic logP came to 3.25.

For `Cn1oc(=O)nc1C(=NOCc1cccc(N)n1)c1cccc(F)c1` [Example 23], the chromatographic logP turned out to be 0.99.

`CCCCCCC(=O)Nc1cccc(CON=C(c2cccc(OC)c2)c2nc(=O)o[nH]2)n1` [Example 50] registered a chromatographic logP of 3.71.

The compound `COc1cccc(C(=NOCc2cccc(NC(=O)OCCC(C)C)n2)c2nc(=O)on2C)c1` [Example 101] showed a chromatographic logP of 3.78.

As for `CC#CCOC(=O)Nc1cccc(CON=C(c2cccc(C)c2)c2nc(=O)on2C)n1` [Example 107], the chromatographic logP was 3.13.

Take `CCCCC(=O)Nc1cccc(CON=C(c2ccccc2)c2nc(=O)on2C)n1` [Example 12]: the chromatographic logP is 2.9.

As for `O=C(Cc1cccc(F)c1)Nc1cccc(CON=C(c2cccc(F)c2)c2nc(=O)o[nH]2)n1` [Example 74], the chromatographic logP amounted to 3.13.

The compound `CCCCCC(=O)Nc1cccc(CON=C(c2ccccc2)c2nc(=O)on2CC)n1` [Example 174] yielded a chromatographic logP of 3.52.

In turn, `C#CCOC(=O)Nc1cccc(CON=C(c2ccccc2)c2nc(=O)on2C)n1` [Example 131] showed a chromatographic logP of 2.57.

In turn, `CC(OC(=O)Nc1cccc(CON=C(c2ccccc2)c2nc(=O)on2C)n1)C1CCCC1` (stereo not shown) [Example 179] had a chromatographic logP of 4.15.

Compound `CC(C)CCOC(=O)Nc1cccc(CON=C(c2ccccc2)c2nc(=O)on2C)n1` [Example 161] registered a chromatographic logP of 3.74.

`Cc1cccc(C(=NOCc2cccc(NC(=O)OCCc3ccccc3)n2)c2nc(=O)on2C)c1` [Example 168] returned a chromatographic logP of 3.85.

Regarding `Cn1oc(=O)nc1C(=NOCc1cccc(NC(=O)CCC2CCCC2)n1)c1ccccc1` [Example 145], the chromatographic logP was found to be 3.72.

`Cn1oc(=O)nc1C(=NOCc1cccc(NC(=O)OCc2ccccc2Cl)n1)c1ccccc1` [Example 184]: the chromatographic logP is 3.76. This chromatographic logP and that of the compound before are within 0.2 log units of each other.

`Cn1oc(=O)nc1C(=NOCc1cccc(NC(=O)Cc2ccccc2)n1)c1ccccc1` [Example 126] displayed a chromatographic logP of 2.94.

In the case of `Cn1oc(=O)nc1C(=NOCc1cccc(NC(=O)c2ccc(F)cc2)n1)c1ccccc1` [Example 157], the chromatographic logP stood at 3.04.

In turn, `Cn1oc(=O)nc1/C(=N\OCc1cccc(N)n1)c1ccccc1` [Example 11, 3-[(Z)-{[(6-aminopyridin-2-yl)methoxy]imino}(phenyl)methyl]-2-methyl-1,2,4-oxadiazol-5(2H)-one] came in with a chromatographic logP of 0.84.

On to `Cc1cccc(C(=NOCc2cccc(NC(=O)Cc3cccc(F)c3)n2)c2nc(=O)on2C)c1` [Example 98], for which the chromatographic logP came to 3.31.

With `Cn1oc(=O)nc1C(=NOCc1cccc(NC(=O)CC2CCCC2)n1)c1ccccc1` [Example 115], the chromatographic logP was determined as 3.29.

The compound `CC(C)n1oc(=O)nc1C(=NOCc1cccc(NC(=O)OC(C)(C)C)n1)c1ccccc1` [Example 41] displayed a chromatographic logP of 3.8.

In turn, `COc1ccc(OC(=O)Nc2cccc(CON=C(c3ccccc3)c3nc(=O)on3C)n2)cc1` [Example 185] yielded a chromatographic logP of 3.15.

In turn, `Cn1oc(=O)nc1C(=NOCc1cccc(NC(=O)OCC2CCCCC2)n1)c1ccccc1` [Example 127] registered a chromatographic logP of 4.24.

The compound `C#CCC(C)OC(=O)Nc1cccc(CON=C(c2ccccc2)c2nc(=O)on2C)n1` (stereo not shown) [Example 125] came in with a chromatographic logP of 2.98.

On to `C#CCCCOC(=O)Nc1cccc(CON=C(c2ccccc2)c2nc(=O)on2C)n1` [Example 122], for which the chromatographic logP turned out to be 2.94.

The compound `CCCCCCC(=O)Nc1cccc(CON=C(c2ccccc2)c2nc(=O)on2C)n1` [Example 120] showed a chromatographic logP of 3.65.

In turn, `COc1cccc(C(=NOCc2cccc(NC(=O)OCCc3ccccc3)n2)c2nc(=O)on2C)c1` [Example 162] registered a chromatographic logP of 3.61.

For `CCCCOC(=O)Nc1cccc(CON=C(c2cccc(F)c2F)c2nc(=O)on2C)n1` [Example 188], the chromatographic logP is 3.46.

In turn, `Cn1oc(=O)nc1C(=NOCc1cccc(NC(=O)C2(C)CCCCC2)n1)c1ccccc1` [Example 136] returned a chromatographic logP of 3.68.

The compound `Cn1oc(=O)nc1/C(=N\OCc1cccc(Br)n1)c1ccccc1` [Example 193, 3-[(Z)-{[(6-bromopyridin-2-yl)methoxy]imino}(phenyl)methyl]-2-methyl-1,2,4-oxadiazol-5(2H)-one] came in with a chromatographic logP of 2.75.

`CC(OC(=O)Nc1cccc(CON=C(c2ccccc2)c2nc(=O)on2C)n1)C1CCCCC1` (stereo not shown) [Example 141]: the chromatographic logP was determined as 4.56.

`Cn1oc(=O)nc1C(=NOCc1cccc(NC(=O)OCCc2ccccc2)n1)c1cccc(F)c1` [Example 165] displayed a chromatographic logP of 3.65.

Consider `CCn1oc(=O)nc1C(=NOCc1cccc(N)n1)c1ccccc1` [Example 111], for which the chromatographic logP is 1.07.

As for `COc1cccc(C(=NOCc2cccc(NC(=O)CCc3ccccc3)n2)c2nc(=O)on2C)c1` [Example 164], the chromatographic logP stood at 3.27.

With `Cc1cccc(C(=NOCc2cccc(NC(=O)OCc3ccccc3)n2)c2nc(=O)on2C)c1` [Example 167], the chromatographic logP amounted to 3.68.

On to `CC(Oc1ccccc1)C(=O)Nc1cccc(CON=C(c2ccccc2)c2nc(=O)on2C)n1` (stereo not shown) [Example 140], for which the chromatographic logP worked out at 3.35.

As for `Cn1oc(=O)nc1C(=NOCc1cccc(NC(=O)OCCC2CC2)n1)c1ccccc1` [Example 138], the chromatographic logP stood at 3.39.

As to `COc1cccc(C(=NOCc2cccc(NC(=O)c3ccc(F)cc3)n2)c2nc(=O)o[nH]2)c1` [Example 62], the chromatographic logP was 3.09.

In turn, `Cn1oc(=O)nc1C(=NOCc1cccc(NC(=O)Cc2cccs2)n1)c1ccccc1` [Example 135] displayed a chromatographic logP of 2.86.

With `Cn1oc(=O)nc1C(=NOCc1cccc(NC(=O)c2ccccc2)n1)c1cccc(F)c1` [Example 89], the chromatographic logP came out at 3. This chromatographic logP and that of the compound before are within 0.2 log units of each other.

As to `C/C=C/CCCOC(=O)Nc1cccc(CON=C(c2ccccc2)c2nc(=O)on2C)n1` [Example 183], the chromatographic logP was found to be 3.81.

Take `C=CCCCCOC(=O)Nc1cccc(CON=C(c2ccccc2)c2nc(=O)on2C)n1` [Example 123]: the chromatographic logP came to 3.76.

`Cn1oc(=O)nc1C(=NOCc1cccc(NC(=O)c2ccc(F)cc2)n1)c1cccc(F)c1` [Example 92]: the chromatographic logP came to 3.15.

`Cn1oc(=O)nc1C(=NOCc1cccc(NC(=O)OC(C)(C)C)n1)c1cccc(F)c1F` [Example 113] came in with a chromatographic logP of 3.39.

The compound `Cc1ccc(C(=O)Nc2cccc(CON=C(c3cccc(F)c3)c3nc(=O)o[nH]3)n2)cc1` [Example 77] yielded a chromatographic logP of 3.33. The chromatographic logP values of the last two compounds are within 0.2 log units of each other.

`Cn1oc(=O)nc1C(=NOCc1cccc(N)n1)c1cccc(F)c1F` [Example 192] registered a chromatographic logP of 0.96.

For the compound `C#CCOC(=O)Nc1cccc(CON=C(c2cccc(OC)c2)c2nc(=O)on2C)n1` [Example 95], the chromatographic logP came out at 2.63.

As for `COc1cccc(C(=NOCc2cccc(NC(=O)c3cccc(C)c3)n2)c2nc(=O)o[nH]2)c1` [Example 61], the chromatographic logP is 3.31.

In the case of `CC#CCCOC(=O)Nc1cccc(CON=C(c2ccccc2)c2nc(=O)on2C)n1` [Example 156], the chromatographic logP was 3.

The same data set, now with this note: pH 2.7, LogP, HPLC on reversed phase columns, pH 2.7, 0.1% formic acid in water / acetonitrile gradient; compounds of formula (V), Table 2.
`CN(O)C(=N)/C(=N\OCc1cccc(NC(=O)OC(C)(C)C)n1)c1ccccc1` [Example V-02, tert-butyl (6-{[({(1Z)-2-[hydroxy(methyl)amino]-2-imino-1-phenylethylidene}amino)oxy]methyl}pyridin-2-yl)carbamate] gave a chromatographic logP of 1.81.

The compound `COc1cccc(C(=NOCc2cccc(NC(=O)OC(C)(C)C)n2)C(=N)N(C)O)c1` [Example V-06] returned a chromatographic logP of 1.86.

`CN(O)C(=N)C(=NOCc1cccc(NC(=O)OC(C)(C)C)n1)c1ccccc1C(F)F` [Example V-11]: the chromatographic logP is 2.43.

As to `CN(O)C(=N)/C(=N\OCc1cccc(NC(=O)OC(C)(C)C)n1)c1cccc(F)c1` [Example V-05, tert-butyl (6-{[({(1Z)-2-[hydroxy(methyl)amino]-2-imino-1-(3-fluorophenyl)ethylidene}amino)oxy]methyl}pyridin-2-yl)carbamate], the chromatographic logP stood at 1.86.

In turn, `CN(O)C(=N)/C(=N\OCc1cccc(Br)n1)c1ccccc1` [Example V-12, (2Z)-2-{[(6-bromopyridin-2-yl)methoxy]imino}-N-hydroxy-N-methyl-2-phenylethanimidamide] had a chromatographic logP of 1.39.

As to `C#CCCOC(=O)Nc1cccc(CO/N=C(\C(=N)N(C)O)c2ccccc2)n1` [Example V-01, but-3-yn-1-yl (6-{[({(1Z)-2-[hydroxy(methyl)amino]-2-imino-1-phenylethylidene}amino)oxy]methyl}pyridin-2-yl)carbamate], the chromatographic logP worked out at 1.63.

`CC(C)N(O)C(=N)C(=NOCc1cccc(NC(=O)OC(C)(C)C)n1)c1ccccc1` [Example V-09] yielded a chromatographic logP of 2.05.

`COCCN(O)C(=N)C(=NOCc1cccc(NC(=O)OC(C)(C)C)n1)c1ccccc1` [Example V-07] showed a chromatographic logP of 1.93.

Regarding `CN(O)C(=N)C(=NOCc1cccc(NC(=O)OC(C)(C)C)n1)c1cccc(F)c1F` [Example V-10], the chromatographic logP is 1.9.

The next data set has as its system Phytophthora infestans. The data set is described as follows: whole plant or invertebrate. The data set is classed as in vivo. To be noted: in Solanum lycopersicum, 120 h, read-out: % efficacy.
As for `C#CCCOC(=O)Nc1cccc(CON=C(c2cccc(C)c2)c2nc(=O)on2C)n1` [Example 84], the pest or weed control at 500 ppm amounted to 100%.

Regarding `C#CCC(C)OC(=O)Nc1cccc(CON=C(c2cccc(C)c2)c2nc(=O)on2C)n1` (stereo not shown) [Example 83], the pest or weed control at 500 ppm was determined as 94%.

Take `Cn1oc(=O)nc1C(=NOCc1cccc(N)n1)c1cccc(F)c1` [Example 23]: the pest or weed control at 500 ppm stood at 98%.

As to `CCCCCCC(=O)Nc1cccc(CON=C(c2cccc(OC)c2)c2nc(=O)o[nH]2)n1` [Example 50], the pest or weed control at 500 ppm was found to be 100%.

Regarding `COc1cccc(C(=NOCc2cccc(NC(=O)OCCC(C)C)n2)c2nc(=O)on2C)c1` [Example 101], the pest or weed control at 500 ppm was found to be 70%.

Turning to `CC#CCOC(=O)Nc1cccc(CON=C(c2cccc(C)c2)c2nc(=O)on2C)n1` [Example 107], the pest or weed control at 500 ppm amounted to 93%.

In the case of `CCCCC(=O)Nc1cccc(CON=C(c2ccccc2)c2nc(=O)on2C)n1` [Example 12], the pest or weed control at 500 ppm was 100%.

Turning to `O=C(Cc1cccc(F)c1)Nc1cccc(CON=C(c2cccc(F)c2)c2nc(=O)o[nH]2)n1` [Example 74], the pest or weed control at 500 ppm worked out at 85%.
